Several values for one entry are separate records, joined by “and”; a condition that tells them apart may be missing. Equal entries are not always repeated.
Settings: for mass density: 101.33 kPa, Liquid, Vibrating tube method; for surface tension liquid-gas: Pendant drop shape

CCCCCCCn1cc[n+](C)c1.O=S(=O)([N-]S(=O)(=O)C(F)(F)F)C(F)(F)F
Settings	mass density [kg/m3]
293.15 K	1349.5
303.15 K	1340.4
313.15 K	1331.5
323.15 K	1322.6
333.15 K	1313.8
343.15 K	1305
353.15 K	1296.3
363.15 K	1287.6
373.15 K	1278.9
383.15 K	1270.1
393.15 K	1261.4
403.15 K	1252.6
413.15 K	1243.8
423.15 K	1235
433.15 K	1226.1
443.15 K	1217
453.15 K	1208
463.15 K	1198.7
473.15 K	1189.4

CCCCCCCCCCCCn1cc[n+](C)c1.O=S(=O)([N-]S(=O)(=O)C(F)(F)F)C(F)(F)F
Settings	mass density [kg/m3]	surface tension liquid-gas [mN/m]
293.15 K	1249.6	–
303.15 K	1240.9	–
313.15 K	1232.4	–
323.15 K	1224	–
333.15 K	1215.6	–
333.3 K	–	26.4
343.15 K	1207.4	–
353.15 K	1199.2	–
353.6 K	–	25.4
363.15 K	1190.9	–
373.15 K	1182.8	–
373.7 K	–	24.5
383.15 K	1174.7	–
393.15 K	1166.2	–
393.6 K	–	23.6
403.15 K	1158.4	–
413.15 K	1150.2	–
413.7 K	–	22.5
423.15 K	1142	–
433.15 K	1133.7	–
433.6 K	–	21.4
453.8 K	–	20.4
473.7 K	–	19.5
493.3 K	–	18.8
512.9 K	–	17.8
532.6 K	–	16.9

CCCC[n+]1ccn(C)c1.O=S(=O)([N-]S(=O)(=O)C(F)(F)F)C(F)(F)F
Settings	mass density [kg/m3]	surface tension liquid-gas
293.15 K	1442.3	–
303.15 K	1432.8	–
312.6 K	–	31.9 mN/m
313.15 K	1423.4	–
313.3 K	–	31.9 mN/m and 30.4 mN/m
323.15 K	1414.1	–
332.6 K	–	30.8 mN/m
333.1 K	–	31.2 mN/m
333.15 K	1404.8	–
333.5 K	–	29.7 mN/m
343.15 K	1395.6	–
352.6 K	–	30.2 mN/m
353.15 K	1386.3	–
353.6 K	–	28.8 mN/m
353.7 K	–	30.1 mN/m
363.15 K	1377.1	–
372.7 K	–	27.9 mN/m
373.15 K	1367.9	–
373.6 K	–	28.1 mN/m
374.1 K	–	29.2 mN/m
383.15 K	1358.7	–
392.7 K	–	26.2 mN/m
393.15 K	1349.4	–
393.6 K	–	25.9 mN/m
394.2 K	–	28.1 mN/m
403.15 K	1340.1	–
412.5 K	–	26 mN/m
413.15 K	1330.7	–
413.6 K	–	25.6 mN/m
414.4 K	–	27.2 mN/m
423.15 K	1321.2	–
432.5 K	–	25.6 mN/m
432.6 K	–	24.9 mN/m
433.15 K	1311.6	–
434.5 K	–	26.6 mN/m
443.15 K	1301.9	–
452.2 K	–	24.4 mN/m and 24.2 mN/m
453.15 K	1292.1	–
455 K	–	25.8 mN/m
463.15 K	1282.2	–
472 K	–	23.3 mN/m
473 K	–	23.7 mN/m
473.15 K	1272	–
475.2 K	–	24.6 mN/m

CCCCCC[n+]1ccn(C)c1.O=S(=O)([N-]S(=O)(=O)C(F)(F)F)C(F)(F)F
Settings	mass density [kg/m3]	surface tension liquid-gas [mN/m]
293.15 K	1378.1	–
303.15 K	1368.9	–
313 K	–	29.4
313.15 K	1359.8	–
323.15 K	1350.8	–
333.15 K	1341.8	–
333.2 K	–	28.1
343.15 K	1332.9	–
353.15 K	1324	–
353.4 K	–	27.2
363.15 K	1315.2	–
373.15 K	1306.3	–
373.4 K	–	26.5
383.15 K	1297.4	–
393.15 K	1288.5	–
393.5 K	–	25.6
403.15 K	1279.6	–
413.15 K	1270.6	–
413.3 K	–	24.8
423.15 K	1261.6	–
433.15 K	1252.4	–
433.6 K	–	24.2
443.15 K	1243.2	–
453.15 K	1233.9	–
453.4 K	–	23.6
463.15 K	1224.5	–
473.15 K	1214.9	–
473.4 K	–	21.8
493.2 K	–	20.7
512.7 K	–	19.3
532.4 K	–	18.5

CCCCCCCCC[n+]1ccn(C)c1.O=S(=O)([N-]S(=O)(=O)C(F)(F)F)C(F)(F)F
Settings	mass density [kg/m3]
293.15 K	1303.1
303.15 K	1294.2
313.15 K	1285.5
323.15 K	1276.8
333.15 K	1268.3
343.15 K	1259.7
353.15 K	1251.3
363.15 K	1242.8
373.15 K	1234.3
383.15 K	1225.8
393.15 K	1217.4
403.15 K	1208.8
413.15 K	1200.3
423.15 K	1191.8
433.15 K	1183.2
443.15 K	1174.5
453.15 K	1165.7
463.15 K	1156.8
473.15 K	1147.8

CCCCCCCCCCCCCCn1cc[n+](C)c1.O=S(=O)([N-]S(=O)(=O)C(F)(F)F)C(F)(F)F
Settings	mass density [kg/m3]	surface tension liquid-gas [mN/m]
312.8 K	–	26.3
323.15 K	1193.1	–
323.3 K	–	24.9
333.15 K	1184.8	–
333.2 K	–	23.5
333.9 K	–	24.1
343.15 K	1176.6	–
353.15 K	1168.5	–
353.3 K	–	23.5
354 K	–	23.7
363.15 K	1160.5	–
373.15 K	1152.4	–
373.5 K	–	22.1
374 K	–	22.6
383.15 K	1144.4	–
393.15 K	1136.4	–
393.6 K	–	21.5
394.7 K	–	21.3
403.15 K	1128.4	–
413.15 K	1120.4	–
413.5 K	–	20.9
414.9 K	–	19.7
423.15 K	1112.4	–
433.15 K	1104.3	–
433.6 K	–	18.7
434.8 K	–	19.6
443.15 K	1096.2	–
453.15 K	1088	–
453.6 K	–	17.5
454.5 K	–	17.9
463.15 K	1079.7	–
473.15 K	1071.4	–
473.5 K	–	16.6
474.5 K	–	17
493.4 K	–	15.9
512.9 K	–	15.5

Source: the NIST ThermoML archive (doi:10.1016/j.fluid.2010.02.020)
